Source: article PMC11040670, “Mechanistic and Kinetic Insights into Cellular Uptake of Biomimetic Dinitrosyl Iron Complexes and Intracellular Delivery of NO for Activation of Cytoprotective HO-1” (JACS Au, 2024)

Columns and labels:
metMb = biological target: T1, metMb (Equus caballus, UniProt P68082); set-up: method as in PMID 37533298; conditions: dinuclear DNIC, no Cys; cited from earlier work
T1 construct: purchased Sigma

HCEC = assay: Cytoprotection of HCEC against H2O2 oxidative stress; type: cell-based, human; conditions: HCEC pretreated 24 h with 75 μM DNIC–COOH, then H2O2
Procedure: Cell viability study of MSC, N2a, and HCEC cells with or without the treatment of DNIC–COOH was performed using a Cell Counting Kit-8 (IMT Formosa New Materials Co., Ltd., Taiwan) according to the manufacturer’s protocol. Briefly, cells were seeded into a 96-well plate at a density of 4 × 10^3 cells/well for MSC, 1 × 10^4 cells/well for N2a, and 8 × 10^3 cells/well for HCEC, respectively, and incubated overnight. On the next day, cells were treated with DNIC–COOH at different concentrations and incubated for 24 h. The culture medium was then removed before the cells were washed with DPBS. After addition of fresh medium containing CCK-8 solution to the cells and incubation for 1–3 h, the absorbance at 450 nm was then measured on a microplate reader (SpectraMax iD3, Molecular Devices, San Jose, CA) with a reference wavelength of 650 nm. […]
To investigate the capacity of DNIC preconditioning to protect the MSC cells against elevated oxidative stress, cells were pretreated with 2.5 μM of DNIC–COOMe or 100 μM of DNIC–COOH for 8 h before being incubated with 250 μM H2O2 for another 24 h. Cell viability was evaluated by live/dead staining or CCK-8 assay. In a similar manner, DNIC-induced cytoprotective effect in HCECs was evaluated through pretreatment of 1 μM of DNIC–COOMe or 75 μM of DNIC–COOH for 24 h.

deoxyMb = test system: deoxyMb; set-up: method as in PMID 37533298; conditions: dinuclear DNIC, no Cys; cited from earlier work
HMOX1 gene = assay: Activation of HMOX1/HO-1, stated jointly for MSC/N2a/HCEC (incl. PTIO/ODQ); type: cell-based
Procedure: After treatment of (1) 100 μM of DNIC–COOH to MSC, (2) 100 μM of DNIC–COOH to N2a, (3) 75 μM of DNIC–COOH to HCEC, (4) 2.5 μM of DNIC–COOMe to MSC, (5) 10 μM of DNIC–COOMe to N2a, and (6) 1 μM of DNIC–COOMe to HCEC, respectively, the total RNA of the treated cells was extracted using TRIzol Reagent (Thermo Fisher Scientific) in order to assess the time-dependent change in the mRNA level of HO-1. After the synthesis of complementary DNA with the High-Capacity Reverse Transcription Kit, qPCR was conducted using Power SYBR Green PCR Master Mix with the StepOnePlus Real-Time PCR System (Thermo Fisher Scientific). The primer sequences were as follows: HMOX1 forward 5′-[…]-3′ and reverse 5′-[…]-3′; RPL13A forward 5′-[…]-3′ and reverse 5′- […]-3′; GAPDH forward 5′-[…]-3′ and reverse 5′-[…]-3′. The relative mRNA levels of target genes were determined by a comparative threshold cycle method and normalized to that of RPL13A (or GAPDH). The mRNA level of HO-1 in the MSC, N2a, and HCEC cells, respectively, that received the (1) sequential treatments of 1H-[1,2,4]oxadiazolo-[4,3-a]quinoxalin-1-one (ODQ, 10 μM for 1 h) and DNIC–COOH (100 μM in MSC for 3 h, 100 μM in N2a for 10 h, and 75 μM in HCEC for 6 h) or (2) cotreatment of 2-phenyl-4,4,5,5-tetramethylimidazoline-1-oxyl-3-oxide ([…]) and DNIC–COOH (100 μM in MSC for 3 h, 100 μM in N2a for 10 h, and 75 μM in HCEC for 6 h) was also evaluated under a similar procedure.

MSC/N2a/HCEC = assay: Intracellular release of NO, stated jointly for MSC/N2a/HCEC; type: cell-based
Procedure: Intracellular release of NO by DNIC–COOH was validated using the fluorescence probe 4-amino-5-methylamino-2′,7′-difluorofluorescein diacetate (DAF-FM) in combination with fluorescence analysis techniques. Briefly, the MSC cells (or N2a and HCEC cells) were seeded onto a 96-well black plate at a density of 6 × 10^3 cells/well (or 1 × 10^4 cells/well for N2a and 8 × 10^3 cells/well for HCEC cells) and incubated at 37 °C overnight. On the next day, the MSC cells were first treated with 10 μM of DAF-FM (or 5 μM for N2a and HCEC cells) and incubated at 37 °C for 0.5 h. […] Fluorescence intensity of the cells was then recorded using a microplate reader (SpectraMax iD3, Molecular Devices, San Jose, CA) with an excitation wavelength at 485 nm and an emission wavelength at 525 nm. Three independent experiments were executed to measure the time-dependent change of average fluorescence intensity. Time-dependent change of average fluorescence intensity for the MSC/N2a/HCEC cells with sequential treatment of DAF-FM (10 μM for MSC cells, 5 μM for N2a cells, 5 μM for HCEC cells; 0.5 h) and DNIC–COOMe (2.5 μM for MSC cells, 10 μM for N2a cells, 1 μM for HCEC cells) was determined in a similar manner.

T1 sequence (P68082 2-154 limits assumed): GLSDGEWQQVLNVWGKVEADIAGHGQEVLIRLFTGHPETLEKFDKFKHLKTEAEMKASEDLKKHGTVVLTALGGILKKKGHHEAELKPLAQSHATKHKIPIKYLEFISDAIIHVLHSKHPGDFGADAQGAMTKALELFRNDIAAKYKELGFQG

Compound | reactivity toward the Fe3+-porphyrin center in metMb (metMb) | survival under mimic oxidative stress condition (HCEC) | nitrosylation of the Fe2+-porphyrin center in deoxyMb (deoxyMb) | activation of cytoprotective HO-1 (HMOX1 gene; at t = 3–10 h (abstract)) | effect on transcriptional activation of HMOX1 gene by DNIC–COOH (HMOX1 gene; cotreatment of PTIO to MSC/HCEC) | effect on transcriptional activation of HMOX1 gene by DNIC–COOH (HMOX1 gene; higher concentration of PTIO (100 μM) to N2a) | effect on transcriptional activation of HMOX1 gene by DNIC–COOH (HMOX1 gene; pretreatment of ODQ to MSC/N2a/HCEC) | tmax for intracellular release of free NO (MSC/N2a/HCEC) [h]
O=[N][Fe]1([N]=O)[SH](CCC(=O)O)[Fe]([N]=O)([N]=O)[SH]1CCC(=O)O (stereo not drawn) [DNIC–COOH, [(NO)2Fe(μ-SCH2CH2COOH)2Fe(NO)2]] | inert | enhanced survival | efficient nitrosylation | 50–150 fold change | no significant perturbation | reduced transcriptional activation | no significant perturbation | 4 to 6
COC(=O)CC[SH]1[Fe]([N]=O)([N]=O)[SH](CCC(=O)OC)[Fe]1([N]=O)[N]=O (stereo not drawn) [DNIC–COOMe, [(NO)2Fe(μ-SCH2CH2COOCH3)2Fe(NO)2]] | – | – | – | – | – | – | – | 1 to 2
